Results as given in ChEMBL document CHEMBL1201862, “PubChem BioAssay data set” (2004).
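Method: 48-hour compound exposure of cells in 96-well plates, five concentrations, linear interpolation of endpoints. GI50 = concentration required for 50% inhibition of growth.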 Active and inactive are the calls of the source. No stated cut-off is given here; in the data, active = GI50 up to about 1.1 µM and inactive = higher.

How the values were obtained:
Test in all cases: NCI anticancer screen, dose series, 48 h
A549 = system: A549
NCI-H226 = system: NCI-H226
OVCAR-3 = system: OVCAR-3
786-0 = system: 786-0
HCC 2998 = system: HCC 2998
UO-31 = system: UO-31
SK-MEL-28 = system: SK-MEL-28
NCI-H522 = system: NCI-H522
UACC-62 = system: UACC-62
MOLT-4 = system: MOLT-4
HCT-116 = system: HCT-116
SN12C = system: SN12C
HCT-15 = system: HCT-15
SF-268 = system: SF-268
HT-29 = system: HT-29
CAKI-1 = system: CAKI-1
ACHN = system: ACHN
LOX IMVI = system: LOX IMVI
UACC-257 = system: UACC-257
A498 = system: A498

Row | SMILES | GI50 (A549) | GI50 (NCI-H226) | GI50 (OVCAR-3) | GI50 (786-0) | GI50 (HCC 2998) | GI50 (UO-31) | GI50 (SK-MEL-28) | GI50 (NCI-H522) | GI50 (UACC-62) | GI50 (MOLT-4) | GI50 (HCT-116) | GI50 (SN12C) | GI50 (HCT-15) [µM] | GI50 (SF-268) | GI50 (HT-29) | GI50 (CAKI-1) | GI50 (ACHN) | GI50 (LOX IMVI) | GI50 (UACC-257) | GI50 (A498)
1 | CC1(C)COC(c2ccc(C(=O)c3ccc(Cl)cc3)cc2)=N1 | 83 µM (inactive) | 23 µM (inactive) | > 100 µM (inactive) | > 100 µM (inactive) | > 100 µM (inactive) | 58.7 µM (inactive) | > 100 µM (inactive) | > 100 µM (inactive) | > 100 µM (inactive) | 98.2 µM (inactive) | > 100 µM (inactive) | > 100 µM (inactive) | > 100 | > 100 µM (inactive) | > 100 µM (inactive) | > 100 µM (inactive) | > 100 µM (inactive) | > 100 µM (inactive) | 10.7 µM (inactive) | –
2 | O=C1c2ccccc2C(=O)N1CCCOCc1cnc(O)nc1O | > 100 µM (inactive) | > 100 µM (inactive) | > 100 µM (inactive) | > 100 µM (inactive) | – | > 100 µM (inactive) | > 100 µM (inactive) | > 100 µM (inactive) | > 100 µM (inactive) | > 100 µM (inactive) | > 100 µM (inactive) | > 100 µM (inactive) | > 100 | > 100 µM (inactive) | > 100 µM (inactive) | > 100 µM (inactive) | > 100 µM (inactive) | > 100 µM (inactive) | > 100 µM (inactive) | > 100 µM (inactive)
3 | O=C1NNC(=O)c2ccccc2SSc2ccccc2C(=O)NNC(=O)c2ccccc2SSc2ccccc21 | 19.5 µM (inactive) | > 50 µM (inactive) | 16.9 µM (inactive) | 13.5 µM (inactive) | > 100 µM (inactive) | 3.39 µM (inactive) | 45.5 µM (inactive) | 35.5 µM (inactive) | 16.7 µM (inactive) | 2.94 µM (inactive) | 7.76 µM (inactive) | 12.9 µM (inactive) | 8.99 | 5.31 µM (inactive) | 16.7 µM (inactive) | 13.2 µM (inactive) | 14 µM (inactive) | 12 µM (inactive) | 19.9 µM (inactive) | –
4 | C/C(=N/O)C1CC=C(S(=O)(=O)c2ccccc2)C1 (stereo not given) | > 100 µM (inactive) | > 100 µM (inactive) | > 100 µM (inactive) | > 100 µM (inactive) | > 100 µM (inactive) | > 100 µM (inactive) | > 100 µM (inactive) | > 100 µM (inactive) | > 10 µM (inactive) | > 100 µM (inactive) | – | > 100 µM (inactive) | > 100 | > 100 µM (inactive) | > 100 µM (inactive) | > 100 µM (inactive) | > 100 µM (inactive) | > 100 µM (inactive) | > 100 µM (inactive) | –
5 | CC(C)(C)C1CCC2c3c([nH]c4ncccc34)C3C(=O)N(c4ccccc4)C(=O)C3C2C1 (stereo not given) | > 100 µM (inactive) | > 100 µM (inactive) | > 100 µM (inactive) | > 100 µM (inactive) | > 100 µM (inactive) | > 100 µM (inactive) | > 100 µM (inactive) | 89.3 µM (inactive) | > 100 µM (inactive) | > 100 µM (inactive) | > 100 µM (inactive) | 88.1 µM (inactive) | > 100 | > 100 µM (inactive) | > 100 µM (inactive) | > 100 µM (inactive) | > 100 µM (inactive) | > 100 µM (inactive) | > 100 µM (inactive) | –
6 | Nc1ncn2c(n1)nc1ccccc12 | > 100 µM (inactive) | > 100 µM (inactive) | – | > 100 µM (inactive) | – | > 100 µM (inactive) | > 100 µM (inactive) | > 100 µM (inactive) | > 100 µM (inactive) | > 100 µM (inactive) | > 100 µM (inactive) | > 100 µM (inactive) | > 100 | > 100 µM (inactive) | > 100 µM (inactive) | > 100 µM (inactive) | > 100 µM (inactive) | – | > 100 µM (inactive) | 57 µM (inactive)
7 | CCC(O)CCCCCCCCCCCCCCC(=O)O (stereo not given) | > 100 µM (inactive) | > 100 µM (inactive) | > 100 µM (inactive) | 84.9 µM (inactive) | – | > 100 µM (inactive) | > 100 µM (inactive) | > 100 µM (inactive) | > 100 µM (inactive) | 44.3 µM (inactive) | > 100 µM (inactive) | > 100 µM (inactive) | – | > 100 µM (inactive) | 40.8 µM (inactive) | > 100 µM (inactive) | > 100 µM (inactive) | > 10 µM (inactive) | > 100 µM (inactive) | > 100 µM (inactive)
8 | CN(C)/N=N/c1nc2c(c(=O)n(C)c(=O)n2C)n1CC(O)CO (stereo not given) | > 100 µM (inactive) | > 100 µM (inactive) | > 100 µM (inactive) | > 100 µM (inactive) | > 100 µM (inactive) | > 100 µM (inactive) | > 100 µM (inactive) | > 100 µM (inactive) | > 100 µM (inactive) | > 100 µM (inactive) | > 100 µM (inactive) | > 100 µM (inactive) | > 100 | > 100 µM (inactive) | > 100 µM (inactive) | > 100 µM (inactive) | > 100 µM (inactive) | – | > 100 µM (inactive) | –
9 | Nc1c(-c2nc3ccccc3s2)c2ccc([N+](=O)[O-])cc2c(=O)n1-c1cccc(C(=O)O)c1 | 34.9 µM (inactive) | 23 µM (inactive) | – | 31.7 µM (inactive) | 62.5 µM (inactive) | 24.1 µM (inactive) | 21.4 µM (inactive) | 37.8 µM (inactive) | 21 µM (inactive) | – | 21.2 µM (inactive) | 30.3 µM (inactive) | 27.4 | 35.5 µM (inactive) | 86.1 µM (inactive) | 27.5 µM (inactive) | 33 µM (inactive) | 31.8 µM (inactive) | 20.9 µM (inactive) | –
10 | Cn1c(N)c(Cc2ccc(Cl)cc2)c(=O)[nH]c1=O | > 100 µM (inactive) | > 100 µM (inactive) | > 100 µM (inactive) | > 100 µM (inactive) | – | > 100 µM (inactive) | > 100 µM (inactive) | > 100 µM (inactive) | > 100 µM (inactive) | > 100 µM (inactive) | > 100 µM (inactive) | > 100 µM (inactive) | > 100 | > 100 µM (inactive) | > 100 µM (inactive) | > 100 µM (inactive) | > 100 µM (inactive) | > 100 µM (inactive) | > 100 µM (inactive) | > 100 µM (inactive)
11 | CC[N+](CC)(CC)Cc1cn(S(=O)(=O)c2ccccc2)c2ccccc12 | > 100 µM (inactive) | > 100 µM (inactive) | > 100 µM (inactive) | > 100 µM (inactive) | > 100 µM (inactive) | > 100 µM (inactive) | > 100 µM (inactive) | > 100 µM (inactive) | > 100 µM (inactive) | > 100 µM (inactive) | > 100 µM (inactive) | – | > 100 | > 100 µM (inactive) | > 100 µM (inactive) | > 100 µM (inactive) | > 100 µM (inactive) | – | > 100 µM (inactive) | –
